Laboratory results reported in patent US20250195604A1, “Compositions and Methods of Treatment of Certain Vasculitis Syndromes” (Soligenix, Inc., priority 2023, published 2025).
Entries after “also recorded” stand apart in the source; their conditions may differ. Like-named read-outs stand apart in the source and are kept apart here. No end group written: not given here.

How the values were obtained:
[1] = test system: whole blood stimulated with LPS (E. coli); assay: Phase 1 study: in vitro LPS stimulation of whole blood from SAD and MAD volunteers, cytokine and chemokine analytes; type: in vivo, human
Description: Solid lines indicate the mean response, dashed lines the respective 95% CI for the population.
(§1) In a Phase 1 study, patients received single ascending doses (0.15 to 8.0 mg/kg) and multiple ascending doses (daily 7× 0.5 to 6.5 mg/kg) of dusquetide as 4-minutes IV infusions. To determine the pharmacodynamic profile of dusquetide, cytokine and chemokine analytes were quantified after 4 h of in vitro stimulation of whole blood with LPS (E. coli) to determine dusquetide effects on dose, gender and any extended impact on PD.
The following panel of cytokine and chemokine analytes were quantified: IL-la; IL-1B; IL-6; IL-1ra; TNFα; Tumor Necrosis Factor-Receptor II (TNF RII); MCP-1; Macrophage Inflammatory Protein-1alpha (MIP-la; also known as CCL3); MIP-1B (also known as CCL4) and RANTES (also known as CCL5). The dusquetide-treated population (N=56) in the combined SAD and MAD data set was subdivided into “low dose” (N=26, 0.15-2.0 mg/kg) and “high dose” (N=30; 3.0-8.0 mg/kg) groups and these were compared to the combined placebo group (N=22).

[2] = Phase 1 studies, safety of IV dusquetide; type: in vivo, human; conditions: dose levels of 0.15 to 8.0 mg/kg
Description: The dosage form of dusquetide is an aqueous, aseptically processed, sterile solution for injection. Each vial contains 5 mL of a 60 mg/mL solution (300 mg of dusquetide). Dusquetide is formulated in water for injection and pH adjusted to a target value of 6.0. The preferred formulation of the present invention contains no excipients and has an osmolality of ˜300 mOsm/kg. Dusquetide drug product is diluted in sterile saline to the appropriate concentration for injection, determined on a mg/kg basis by the recipient's weight at a dose level of 1.5 mg/kg. Diluted dusquetide is administered as an intravenous (IV) infusion in 25 mL over 4 minutes, once every third day.
as §1

[3] = test system: severe oral mucositis (SOM); assay: Phase 2 study of oral mucositis in head and neck cancer patients receiving radiation and cisplatin (IDR-OM-01); type: in vivo, human
Description: The Phase 2 study was designed to examine the effects of dusquetide on ameliorating OM in patients with oral or oropharyngeal squamous cell carcinoma who were undergoing therapy with fractionated radiation (2.0-2.2 Gy per day for a total planned cumulative dose of 55-75 Gy) and chemotherapy with cisplatin given either as “low dose” (30-40 mg/m2 every week) or as “high dose” or “aggressive” cisplatin (80-100 mg/m2 given every 3 weeks). Dusquetide was evaluated in this dose ranging study at doses of 1.5, 3.0 (3 patients only) and 6.0 mg/kg.

[4] = test system: severe oral mucositis (SOM); assay: Phase 3 study IDR-OM-02, oral mucositis in head and neck cancer patients receiving chemoradiation; type: in vivo, human; conditions: 1.5 mg/kg twice per week
Description: Subsequently a Phase 3 international study (Study IDR-OM-02) evaluated dusquetide in the treatment of […] in head and neck cancer patients receiving concomitant chemoradiation therapy (at least 55 Gy radiation therapy and 80 to 100 mg/m2 cisplatin received every third week). 266 patients were enrolled in the randomized, blinded and placebo-controlled study assessing treatment with 1.5 mg/kg dusquetide administered twice per week as a 4-minute infusion.

[5] = test system: mouse macrophage-like cell line; assay: Signalling after dusquetide exposure in mouse macrophage-like cell line; type: cell-based
[6] = test system: human epithelial cell lines; assay: Signalling after dusquetide exposure in human epithelial cell lines; type: cell-based
NFKB = NFKB activation on dusquetide binding to p62; type: cell-based
[7] = test system: mouse blood cells challenged with LPS; assay: Ex vivo LPS challenge of mouse blood cells after in vivo dusquetide
Description: (§2) The innate immune system involves numerous cell types distributed throughout the body in both circulating and tissue-resident compartments. The interaction of all the cells defines the aggregate response. […] Nevertheless, cellular and molecular studies with individual cell types or sub-groups of cell types are informative but must be interpreted cautiously when used to predict the behavior of the system in vivo. […] By contrast, when dusquetide exposure of either mouse or human blood occurs in vitro, although the TNFα response to LPS challenge is unaffected, the MCP-1 response is reduced. The responses of mouse and human primary blood cells to dusquetide in this in vitro setting are quantitatively and qualitatively similar.
(§3) Further studies have explored the ability of blood cells to respond to a pathogen (or pathogen-like) challenge in vitro after prior exposure to dusquetide in vivo—an “ex vivo” test system that provides information about the “responsiveness” of the innate defense system. The responsiveness of mouse and NHP innate defense systems have been characterized by measuring changes in cytokine and chemokine production following ex vivo challenge of blood cells with LPS. In general, no evidence of broad-spectrum activation was observed.

[8] = test system: mouse blood challenged with LPS; assay: LPS challenge of mouse blood exposed to dusquetide in vitro; type: cell-based; conditions: dusquetide exposure in vitro
Description: as §2

[9] = test system: human blood challenged with LPS; assay: LPS challenge of human blood exposed to dusquetide in vitro; type: cell-based; conditions: dusquetide exposure in vitro
Description: as §2

[10] = test system: fractionated radiation-induced mucositis; assay: Hamster model of fractionated radiation-induced mucositis; type: in vivo
Description: Dusquetide has been extensively studied in animal models of both mucosal damage (where damage associated molecular patterns (DAMPS)) trigger the innate defense system) and bacterial infection (where pathogen associated molecular patterns (PAMPS)) trigger the innate defense system).

[11] = test system: dextran sulphate sodium (DSS)-induced colitis; parameters: species or system male C57BL/6 mice; conditions: mouse, in vivo
MRSA [12] = conditions: mouse, in vivo
MRSA [13] = assay: MRSA infection in athymic nude mice; type: in vivo
bacterial challenge = assay: Bacterial challenge in mice rendered leukopenic by cyclophosphamide; type: in vivo, mouse
[14] = test system: cytokine or chemokine levels; assay: Circulating cytokine and chemokine levels in normal mice; type: in vivo, mouse
[15] = test system: cytokine and chemokine levels; assay: Circulating cytokine and chemokine levels in NHPs; type: in vivo, NHP
[16] = test system: NHP blood cultured with LPS; assay: Ex vivo LPS challenge of NHP blood after in vivo dusquetide; conditions: for IL-1β response to LPS / MIP-la response to LPS: NHP
Description: as §3

[17] = test system: severe oral mucositis (SOM); conditions: cited from earlier work; for overall infection rate: Kudrimoti 2016
[18] = target: sequestosome-1, also known as p62 (Homo sapiens, UniProt Q13501); conditions: Yu 2009, Zhang 2022; cited from earlier work
p62 = p62 (Homo sapiens, UniProt Q13501); conditions: Yu 2009; cited from earlier work
[19] = test system: mouse primary cell cultures; conditions: North 2016; cited from earlier work
[20] = test system: nonhuman primate (NHP) primary cell cultures; conditions: North 2016; cited from earlier work
[21] = test system: human primary cell cultures; conditions: North 2016; cited from earlier work
[22] = test system: mouse macrophage-like cell line; conditions: medium of dusquetide-incubated splenocytes, North 2016; cited from earlier work
[23] = test system: mucositis (oral and lower GI tract); conditions: mice after chemotherapy, Kudrimoti 2016; cited from earlier work
[24] = test system: dextran sulphate sodium (DSS)-induced colitis; conditions: Kudrimoti 2016, levels comparative to maximal steroid use; cited from earlier work
[25] = test system: MRSA, S. aureus, K. pneumoniae, B. pseudomallei; conditions: mouse, in vivo; cited from earlier work
[26] = test system: response to lipopolysaccharide; conditions: North 2016, Yu 2009; cited from earlier work
MRSA [27] = assay: IV MRSA challenge model (bacteremia) in mice
[28] = low dose group (0.15-2.0 mg/kg)
[29] = low dose group (0.15-2.0 mg/kg), 1 h timepoint, vs placebo or high dose
[30] = 1.5 mg/kg, all patients, vs placebo
[31] = 1.5 mg/kg, every 3rd week cisplatin subpopulation
[32] = 1.5 mg/kg, every 3rd week cisplatin subpopulation, vs placebo
[33] = dusquetide in vivo before culture
[34] = hamster, fractionated radiation
[35] = longer term, 12-24 h after administration
[36] = short term, 1 to 4 h after administration, modest

Chain of p62 (Q13501 whole entry): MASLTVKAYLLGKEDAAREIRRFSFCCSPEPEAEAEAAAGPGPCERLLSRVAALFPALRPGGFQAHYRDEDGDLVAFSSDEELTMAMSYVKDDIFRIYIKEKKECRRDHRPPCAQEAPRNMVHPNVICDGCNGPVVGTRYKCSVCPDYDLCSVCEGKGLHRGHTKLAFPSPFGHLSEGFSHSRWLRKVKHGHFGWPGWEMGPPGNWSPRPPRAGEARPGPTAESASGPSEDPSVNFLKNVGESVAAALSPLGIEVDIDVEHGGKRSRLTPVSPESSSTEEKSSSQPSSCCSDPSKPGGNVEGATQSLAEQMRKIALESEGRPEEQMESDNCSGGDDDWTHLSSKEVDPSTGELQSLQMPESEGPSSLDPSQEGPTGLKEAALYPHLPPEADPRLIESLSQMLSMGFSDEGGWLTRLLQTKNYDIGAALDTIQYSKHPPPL
Chain of sequestosome-1, also known as p62 (Q13501 whole entry): as above

Substance: RIVPA-NH2 [dusquetide, L-arginyl-L-isoleucyl-L-valyl-L-prolyl-L-alanine-amide]
- measured cytokine and chemokine analytes ([1]; high dose group (3.0-8.0 mg/kg)): very similar to the placebo group
- ratio IL-1ra/IL-1B [1, 28]: more distinct increased responses
- ratio TNF RII/TNFα [1, 28]: more distinct increased responses
- IL-1B after LPS stimulation of whole blood [1, 29]: slightly decreased
- IL-1ra after LPS stimulation of whole blood [1, 29]: slightly increased
- IL-1x after LPS stimulation of whole blood [1, 29]: slightly decreased
- TNFα after LPS stimulation of whole blood [1, 29]: slightly decreased
- safety of administration [2]: safely administered
- median duration of SOM ([3]; 1.5 mg/kg, all patients): 9 days
- reduction in median duration of SOM vs placebo ([3]; 1.5 mg/kg, all patients): 50%
- reduction in median AUC for the WHO Grade-time calculation [3, 30]: 39%
- reduction in the incidence of SOM [3, 30]: 7%
- decrease in median duration of SOM vs placebo [3, 31]: 67%
- median duration of SOM [3, 31]: 10 days
- onset of disease [3, 31]: no impact
- reduction in median AUC WHO Grade-time calculation [3, 32]: 51%
- relative reduction in incidence of SOM [3, 32]: 18%
- AUC (WHO Grade-time) ([3]; 1.5 mg/kg, weekly cisplatin): 10.5
- decrease in median duration of SOM vs placebo ([3]; 1.5 mg/kg, weekly cisplatin): 50%
- median duration of SOM ([3]; 1.5 mg/kg, weekly cisplatin): 5 days
- reduction in the AUC vs placebo ([3]; 1.5 mg/kg, weekly cisplatin): 55%
- most efficacious dose ([3]; dose ranging 1.5, 3.0 and 6.0 mg/kg): 1.5 mg/kg
- response in duration of SOM ([4]; intent to treat (ITT) population): not
- response in duration of SOM ([4]; per protocol (PP) population): statistically significant response
- C/EBPB activation [5]: transient activation
- p38 MAP kinase activation [5]: transient activation
- C/EBPB activation [6]: transient activation
- p38 MAP kinase activation [6]: transient activation
- activation of NFKB (NFKB): does not cause persistent activation
- ex vivo MCP-1 response to LPS [7, 33]: increases
- ex vivo TNFα response to LPS [7, 33]: decreases
- responses of most analytes (58 cytokines and chemokines) to LPS [7, 33]: insignificant changes
- ex vivo MCP-3 response to LPS ([7]; dusquetide in vivo vs saline): increases
- MCP-1 response to LPS challenge [8]: reduced
- TNFα response to LPS challenge [8]: unaffected
- MCP-1 response to LPS challenge [9]: reduced
- TNFα response to LPS challenge [9]: unaffected
- efficacy by regimen ([10]; every 2nd or 3rd day at 25 mg/kg): effective
- duration of SOM [10, 34]: decrease
- intensity of SOM [10, 34]: decrease
- degree of response compared with 3 mg/kg prednisolone of 0.5 mg/kg budesonide [11]: similar
- swelling of abraded skin (MRSA [12]): reduced
- ulceration of abraded skin (MRSA [12]): reduced
- survival (MRSA [13]): survival benefit
- survival (bacterial challenge): survival benefit
- cytokine or chemokine levels [14]: no changes
- MCP-1 levels ([15]; NHP, transient): modest changes
- IL-1ra level ([15]; NHPs): marked but variable increase
- levels of most cytokines and chemokines ([15]; NHPs): no substantial changes
- IL-1β response to LPS [16, 35]: mild elevations
- MIP-la response to LPS [16, 35]: mild elevations
- IL-1β response to LPS [16, 36]: decreases
- MIP-la response to LPS [16, 36]: decreases
- IL-1ra response to LPS ([16]; blood from dusquetide-treated NHP): marked increase
- responses of most analytes (47 cytokines and chemokines) to LPS ([16]; primate, dusquetide in vivo before culture): insignificant changes
- formulation of oral ulcers ([17]; Kudrimoti 2016, Kudrimoti 2017): suppress
- overall infection rate [17]: reduction
- overall infection rate ([17]; listed as Dusquetide): decreasing
- binding to sequestosome-1 (p62) [18]: bind (but not inhibit); also recorded: binds
- p62 interaction with PKCS (p62): no effect
- p62 interaction with RIP1 (p62): selectively alters
- p62 interaction with TRAF6 (p62): no effect
- expression patterns of chemokines such as MCP-1 [19]: modulated
- expression patterns of chemokines such as MCP-1 [20]: modulated
- expression patterns of chemokines such as MCP-1 [21]: modulated
- IL-6 response of macrophage cell line [22]: suppressing
- IL-10 response of macrophage cell line [22]: suppressing
- TNFα response of macrophage cell line [22]: suppressing
- duration of mucositis [23]: decreased
- intensity of mucositis [23]: decreased
- protection of the lower GI [24]: further protection
- bacterial growth [25]: reduced bacterial growth
- survival [25]: increased survival
- ILIra relative to IL-1B [26]: increasing
- TNFRII relative to TNFα [26]: increasing
- relation to antibiotic administration (MRSA [27]; IV, therapeutic or prophylactic administration): complementary to antibiotic administration
- IV dose at which efficacy is consistently seen (MRSA [27]; mice, IV): greater than or equal to 5 mg/kg
- duration of PD effects of a single dose (MRSA [27]; mice, depending on the dose level): up to 5 days
- circulating half-life (MRSA [27]; mouse, in vivo): short
